This is an account of results in patent US11873290B2, “Pyridazinone compounds and uses thereof” (Edgewise Therapeutics, Inc., priority 2018, dated 2024).

Some results are limits rather than exact numbers.

As usually defined, the IC50 is the concentration that gives 50% inhibition. A low value points to greater potency in that assay.

The target in the assay is skeletal myofibrils (myosin ATPase activity). As to the kind of experiment: Skeletal Myofibril ATPase Assay. The following applies: PK-LDH coupled, absorbance at 340 nm. Type of assay: biochemical. An outline of the steps:
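Skeletal myofibril ATPase measured by PK-LDH-coupled NADH depletion at 340 nm, read every 1.5–2 min for 1 h; pCa buffer with PIPES/CaCl2/EGTA, pH 7.0. Rate taken as max–min absorbance, normalised to 1% DMSO vehicle (100%) and no change (0%); IC50 from four-parameter fit, bottom ≥0.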
On to `CCc1cncc(Cn2nc(-c3cnc(OCC(F)(F)F)nc3)ccc2=O)c1` [Compound 137, 2-((5-ethylpyridin-3-yl)methyl)-6-(2-(2,2,2-trifluoroethoxy)pyrimidin-5-yl)pyridazine-3(2H)-one], for which the IC50 was under 10 µM.
Under `O=c1ccc(-c2cnc(OCc3ccccc3)nc2)nn1Cc1cncc(F)c1` [Compound 138] stands under 10 µM.
The value for `O=c1ccc(-c2ccc(OC(F)F)cc2)nn1Cc1nnc(-c2ccccc2)s1` [Compound 201, 6-(4-(difluoromethoxy)phenyl)-2-((5-phenyl-1,3,4-thiadiazol-2-yl)methyl)pyridazin-3(2H)-one] was under 10 µM; that for `O=c1ccc(-c2ccc(OC(F)F)cc2)nn1Cc1nc(-c2ccccc2)no1` [Compound 202, 6-(4-(difluoromethoxy)phenyl)-2-((3-phenyl-1,2,4-oxadiazol-5-yl)methyl)pyridazine-3(2H)-one] was under 10 µM.
`O=c1ccc(-c2ccc(OC(F)F)cc2)nn1Cc1nc2ccccc2o1` [Compound 203, 2-(benzo[d]oxazol-2-ylmethyl)-6-(4-(difluoromethoxy)phenyl) pyridazine-3(2H)-one] gave an IC50 of under 10 µM.
`Cc1cc(Cn2nc(-c3ccc(OC(F)F)cc3)ccc2=O)on1` [Compound 204, 6-(4-(difluoromethoxy)phenyl)-2-((3-methylisoxazol-5-yl)methyl)pyridazine-3(2H)-one] had an IC50 of under 10 µM.
Turning to `Cc1csc(Cn2nc(-c3ccc(OC(F)F)cc3)ccc2=O)n1` [Compound 205, 6-(4-(difluoromethoxy)phenyl)-2-((4-methylthiazol-2-yl)methyl) pyridazine-3(2H)-one], the IC50 is under 10 µM.
For the molecule `O=c1ccc(-c2ccc(OC(F)F)cc2)nn1Cc1cc(C2CC2)no1` [Compound 206, 2-((3-cyclopropylisoxazol-5-yl)methyl)-6-(4-(difluoromethoxy)phenyl) pyridazine-3(2H)-one], the IC50 is under 10 µM.
Under `O=c1ccc(-c2ccc(OC(F)F)cc2)nn1Cc1nc(C2CC2)no1` [Compound 208, 2((3-cyclopropyl-1,2,4-oxadiazol-5-yl)methyl)-6-(4-(difluoromethoxy)phenyl) pyridazine-3(2H)-one] stands under 10 µM; under `CCc1cc(Cn2nc(-c3ccc(OC(F)F)cc3)ccc2=O)on1` [Compound 209, 6-(4-(difluoromethoxy)phenyl)-2-((3-ethylisoxazol-5 - yl)methyl)pyridazin-3(2H)-one], under 10 µM; under `O=c1ccc(-c2ccc(OC(F)F)cc2)nn1Cc1nc(C2CC2)cs1` [Compound 210, 2-((4-cyclopropylthiazol-2-yl)methyl)-6-(4-(difluoromethoxy)phenyl) pyridazine-3(2H)-one], under 10 µM.
Under `O=c1ccc(-c2ccc(OC(F)F)cc2)nn1Cc1ccc(Cl)cn1` [Compound 211, 2-((5-chloropyridin-2-yl)methyl)-6-(4-(difluoromethoxy)phenyl)-pyridazin-3(2H)-one] stands 10 to 100 µM; under `O=c1ccc(-c2ccc(OC(F)F)cc2)nn1Cc1nnc(-c2ccccc2)o1` [Compound 212, 6-(4-(difluoromethoxy)phenyl)-2-((5-phenyl-1,3,4-oxadiazol-2-yl)methyl)pyridazin-3(2H)-one], 10 to 100 µM; under `CCc1noc(Cn2nc(-c3ccc(OC(F)F)cc3)ccc2=O)n1` [Compound 213, 6-(4-(difluoromethoxy)phenyl)-2-((3-ethyl-1,2,4-oxadiazol-5-yl)methyl)pyridazin-3(2H)-one], 10 to 100 µM.
Under `O=c1ccc(-c2ccc(OC(F)F)cc2)nn1Cc1nc(C2CC2)co1` [Compound 214, 2-((4-cyclopropyloxazol-2-yl)methyl)-6-(4-(difluoromethoxy)phenyl)-pyridazin-3(2H)-one] stands 10 to 100 µM; under `O=c1ccc(-c2ccc(OC(F)F)cc2)nn1Cc1nnc(C(F)(F)F)o1` [Compound 215, 6-(4-(difluoromethoxy)phenyl)-2-((5-(trifluoromethyl)-1,3,4-oxadiazol-2-yl)methyl)pyridazin-3(2H)-one], 10 to 100 µM.
`Cc1noc(Cn2nc(-c3ccc(OC(F)F)cc3)ccc2=O)n1` [Compound 216, 6-(4-(difluoromethoxy)phenyl)-2-((3-methyl-1,2,4-oxadiazol-5-yl)methyl)pyridazin-3(2H)-one] displayed an IC50 of 10 to 100 µM.
As for `O=c1ccc(-c2ccc(OC(F)F)cc2)nn1Cc1nnc(C2CC2)s1` [Compound 217, 2-((5-cyclopropyl-1,3,4-thiadiazol-2-yl)methyl)-6-(4-(difluoromethoxy)phenyl)-pyridazin-3(2H)-one], the IC50 was in the range of 10 to 100 µM.
`Cc1coc(Cn2nc(-c3ccc(OC(F)F)cc3)ccc2=O)n1` [Compound 218, 6-(4-(difluoromethoxy)phenyl)-2-((4-methyloxazol-2-yl)methyl)pyridazin-3(2H)-one] yielded an IC50 of 10 to 100 µM.
The value for `O=c1ccc(-c2ccc(OC(F)F)cc2)nn1Cc1nnc(C2CC2)o1` [Compound 219] was 10 to 100 µM; that for `O=c1ccc(-c2ccc(OC(F)F)cc2)nn1Cc1cncnc1` [Compound 220, 6-(4-(difluoromethoxy)phenyl)-2-(pyrimidin-5-ylmethyl)pyridazin-3(2H)-one] was 10 to 100 µM.
Molecule `Cc1nnc(Cn2nc(-c3ccc(OC(F)F)cc3)ccc2=O)o1` [Compound 222, 6-(4-(difluoromethoxy)phenyl)-2-((5-methyl-1,3,4-oxadiazol-2-yl)methyl)pyridazin-3(2H)-one] registered an IC50 of 10 to 100 µM.
Under `Cc1nnc(Cn2nc(-c3ccc(OC(F)F)cc3)ccc2=O)s1` [Compound 223, 6-(4-(difluoromethoxy)phenyl)-2-((5-methyl-1,3,4-thiadiazol-2-yl)methyl)pyridazin-3(2H)-one] stands 10 to 100 µM; under `Cc1cnc(Cn2nc(-c3ccc(OC(F)F)cc3)ccc2=O)[nH]1` [Compound 224, 6-(4-(difluoromethoxy)phenyl)-2-((5-methyl-1H-imidazol-2-yl)methyl)pyridazin-3(2H)-one], over 100 µM.
Under `O=c1ccc(-c2ccc(OC(F)F)cc2)nn1Cc1ccncn1` [Compound 225, 6-(4-(difluoromethoxy)phenyl)-2-(pyrimidin-4-ylmethyl)pyridazin-3(2H)-one] stands over 100 µM.
The value for `O=c1ccc(-c2ccc(OC(F)F)cc2)nn1Cc1nccn1CC(F)(F)F` [Compound 226, 6-(4-(difluoromethoxy)phenyl)-2-((1-(2,2,2-trifluoroethyl)-1H-imidazol-2-yl)methyl)pyridazin-3(2H)-one] was over 100 µM; that for `Cc1nnc(Cn2nc(-c3ccc(OC(F)F)cc3)ccc2=O)[nH]1` [Compound 227, 6-(4-(difluoromethoxy)phenyl)-2-((5-methyl-4H-1,2,4-triazol-3-yl)methyl)pyridazin-3(2H)-one] was over 100 µM; that for `O=c1ccc(-c2ccc(OC(F)F)cc2)nn1Cc1nnc(C2CC2)[nH]1` [Compound 228, 2-((5-cyclopropyl-4H-1,2,4-triazol-3-yl)methyl)-6-(4-(difluoromethoxy)phenyl)-pyridazin-3(2H)-one] was over 100 µM.
The molecule `O=c1ccc(-c2ccc(OC(F)F)cc2)nn1Cc1nnc(C(F)(F)F)s1` [Compound 229, 6-(4-(difluoromethoxy)phenyl)-2-((5-(trifluoromethyl)-1,3,4-thiadiazol-2-yl)methyl)pyridazin-3(2H)-one] showed an IC50 of over 100 µM.
Molecule `O=c1ccc(-c2ccc(OC(F)F)cc2)nn1Cc1nc2ccccc2[nH]1` [Compound 230, 2-((1H-benzo[d]imidazol-2-yl)methyl)-6-(4-(difluoromethoxy)phenyl)-pyridazin-3(2H)-one] showed an IC50 of over 100 µM.
On to `O=c1ccc(-c2ccc(OC(F)F)cc2)nn1Cc1ncccn1` [Compound 232, 6-(4-(difluoromethoxy)phenyl)-2-(pyrimidin-2-ylmethyl)pyridazin-3(2H)-one], for which the IC50 is over 100 µM.
`O=c1[nH]nc(Cn2nc(-c3ccc(OC(F)F)cc3)ccc2=O)o1` [Compound 234, 5-((3-(4-(difluoromethoxy)phenyl)-6-oxopyridazin-1(6H)-yl)methyl)-1,3,4-oxadiazol-2(3H)-one] displayed an IC50 of over 100 µM.
The value for `Nc1nnc(Cn2nc(-c3ccc(OC(F)F)cc3)ccc2=O)o1` [Compound 235, 2-((5-amino-1,3,4-oxadiazol-2-yl)methyl)-6-(4-(difluoromethoxy)phenyl)-pyridazin-3(2H)-one] was over 100 µM; that for `O=c1ccc(-c2ccc(OC(F)F)cc2)nn1Cc1nnc(C(F)(F)F)[nH]1` [Compound 236, 6-(4-(difluoromethoxy)phenyl)-2-((5-(trifluoromethyl)-4H-1,2,4-triazol-3-yl)methyl)pyridazin-3(2H)-one] was over 100 µM; that for `O=c1ccc(-c2ccc(OC(F)F)cc2)nn1Cc1nc(-c2ccccc2)co1` [Compound 237, 6-(4-(difluoromethoxy)phenyl)-2-((4-phenyloxazol-2-yl)methyl)pyridazin-3(2H)-one] was 10 to 100 µM.
Under `O=c1ccc(-c2ccc(OCC(F)(F)F)cc2)nn1Cc1cncc(F)c1` [Compound 238, 2-((5-fluoropyridin-3-yl)methyl)-6-(4-(2,2,2-trifluoroethoxy)phenyl) pyridazin-3(2H)-one] stands under 10 µM; under `Cc1noc(Cn2nc(-c3ccc4c(c3)OCCCO4)ccc2=O)n1` [Compound 301, 6-(3,4-dihydro-2H-benzo[b][1,4]dioxepin-7-yl)-2-((3-methyl-1,2,4-oxadiazol-5-yl)methyl)pyridazin-3(2H)-one], over 100 µM.
The value for `COC(=O)c1ccc(Cn2nc(-c3ccc(SC)cc3)ccc2=O)o1` [Compound 302, methyl 5-((3-(4-(methylthio)phenyl)-6-oxopyridazin-1(6H)-yl)methyl)furan-2-carboxylate] was 10 to 100 µM; that for `CCOc1ccc(-c2ccc(=O)n(Cc3nc(-c4ccccn4)no3)n2)cc1` [Compound 304, 6-(4-ethoxyphenyl)-2-((3-(pyridin-2-yl)-1,2,4-oxadiazol-5-yl)methyl)pyridazin-3(2H)-one] was under 10 µM.
